This is an account of results in patent publication US7964624B1, “Inhibitors of serine proteases” (priority 2005, dated 2011).

The pKi is −log10 of the Ki, conventionally taken in molar units.

In the assay the target is T1, HCV NS3 protease domain (Hepatitis C virus genotype 1b, UniProt Q9WMX2).
T1 construct: The first 181 amino acids of NS3 (residues 1027-1207 of the viral polyprotein); hexa-histidine (C); made in house; host or cells: E. coli BL21/DE3 pLysS
Put plainly: biochemical. The settings on record: Enzyme Assay 1 (HCV NS3 Protease Domain Peptide Cleavage Assay) activity, apparent Ki class.

Molecules are shown by their SMILES. pKi: −log10 of the molar value.

T1 sequence (Q9WMX2 1027-1207, other chains not shown): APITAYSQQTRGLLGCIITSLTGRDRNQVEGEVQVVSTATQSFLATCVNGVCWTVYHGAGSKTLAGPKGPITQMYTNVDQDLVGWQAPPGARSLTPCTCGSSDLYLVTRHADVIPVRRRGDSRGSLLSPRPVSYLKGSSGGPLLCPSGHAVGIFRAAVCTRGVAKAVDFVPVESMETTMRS

As for `CCCC1=NO[C@]2(C1)C[C@@H](C(=O)N[C@@H](CCC)C(=O)C(=O)NC1CC1)N(C(=O)[C@@H](NC(=O)OCc1ccccc1)C(C)(C)C)C2` [Compound 235], the pKi is < 6.30.
Under `CCC[C@H](NC(=O)[C@@H]1C[C@]2(CC(c3cccc(Cl)c3)=NO2)CN1C(=O)[C@@H](NC(=O)CCn1ccnc1C)C(C)(C)C)C(=O)C(=O)NC1CC1` [Compound 237] stands 6.30 to 7.00; under `CCC[C@H](NC(=O)[C@@H]1C[C@]2(CC(c3cccc(Br)c3)=NO2)CN1C(=O)[C@@H](NC(=O)OCc1ccccc1)C(C)(C)C)C(=O)C(=O)NC1CC1` [Compound 239], 6.30 to 7.00; under `CCC[C@H](NC(=O)[C@@H]1C[C@]2(CC(c3ccc(C(F)(F)F)cc3)=NO2)CN1C(=O)O[C@H]1CCOC1)C(=O)C(=O)NC1CC1` [Compound 240], < 6.30.
Under `CCCC1=NO[C@]2(C1)C[C@@H](C(=O)N[C@@H](CCC)C(=O)C(=O)NC1CC1)N(C(=O)[C@@H](NC(=O)OC1CCOC1)C(C)(C)C)C2` (stereo partly drawn) [Compound 243] stands < 6.30; under `CCC[C@H](NC(=O)[C@@H]1C[C@]2(CC(c3cccc(OC(F)(F)F)c3)=NO2)CN1C(=O)[C@@H](NC(=O)O[C@H]1CCOC1)C(C)(C)C)C(=O)C(=O)NC1CC1` [Compound 244], 6.30 to 7.00; under `CCC[C@H](NC(=O)[C@@H]1C[C@]2(CC(c3cccc(Cl)c3)=NO2)CN1C(=O)[C@@H](NC(=O)CC1=CCCCC1)C(C)(C)C)C(=O)C(=O)NC1CC1` [Compound 245], 6.30 to 7.00.
In the case of `CC(C)(C)NC(=O)N[C@H](C(=O)N1C[C@@]2(CC(c3cccc(Cl)c3)=NO2)C[C@H]1C(=O)NC(CC1CCC1)C(=O)C(N)=O)C(C)(C)C` (stereo partly drawn) [Compound 247] it was > 7.00.
In the case of `CCC[C@H](NC(=O)[C@@H]1C[C@]2(CC(c3ccccc3)=NO2)CN1C(=O)[C@@H](NC(=O)NCC1CCCCC1)C(C)(C)C)C(=O)C(=O)NC1CC1` [Compound 249], the pKi is 6.30 to 7.00.
In the case of `CCC[C@H](NC(=O)[C@@H]1C[C@]2(CC(Cc3ccccc3)=NO2)CN1C(=O)[C@@H](NC(=O)O[C@H]1CCOC1)C(C)(C)C)C(=O)C(=O)NC1CC1` [Compound 251] it was < 6.30.
Under `CCC[C@H](NC(=O)[C@@H]1C[C@]2(CC(c3cccc(Cl)c3)=NO2)CN1C(=O)[C@@H](NC(=O)OC(C)Cc1cccs1)C(C)(C)C)C(=O)C(=O)NC1CC1` (stereo partly drawn) [Compound 254] stands 6.30 to 7.00.
In the case of `CCC[C@H](NC(=O)[C@@H]1C[C@]2(CC(c3ccc(CC)o3)=NO2)CN1C(=O)[C@@H](NC(=O)CC1CCCCC1)C(C)(C)C)C(=O)C(=O)NC1CC1` [Compound 256] it was 6.30 to 7.00; in that of `CCC[C@H](NC(=O)[C@@H]1C[C@]2(CC(c3cccc(-c4ccccc4)c3)=NO2)CN1C(=O)[C@@H](NC(=O)O[C@H]1CCOC1)C(C)(C)C)C(=O)C(=O)NC1CC1` [Compound 257], 6.30 to 7.00; in that of `CCC[C@H](NC(=O)[C@@H]1C[C@@]2(CC(c3cc(F)cc(C(F)(F)F)c3)=NO2)CN1C(=O)[C@@H](NC(=O)O[C@H]1CCOC1)C(C)(C)C)C(=O)C(=O)NC1CC1` [Compound 258], < 6.30.
`CCC[C@H](NC(=O)[C@@H]1C[C@]2(CC(c3cccc(Cl)c3)=NO2)CN1C(=O)[C@@H](NC(=O)NCc1cc(OC)c(OC)c(OC)c1)C(C)(C)C)C(=O)C(=O)NC1CC1` [Compound 259]: the negative logarithm of the Ki (pKi) was 6.30 to 7.00.
Under `CCC[C@H](NC(=O)[C@@H]1C[C@]2(CC(c3cccc(Cl)c3)=NO2)CN1C(=O)[C@@H](NC(=O)OCCOC)C(C)(C)C)C(=O)C(=O)NC1CC1` [Compound 260] stands 6.30 to 7.00; under `CCC[C@H](NC(=O)[C@@H]1C[C@]2(CC(c3cccc(Cl)c3)=NO2)CN1C(=O)[C@@H](NC(=O)NC1CCN(C(=O)OCc2ccccc2)CC1)C(C)(C)C)C(=O)C(=O)NC1CC1` [Compound 261], 6.30 to 7.00; under `CCC[C@H](NC(=O)[C@@H]1C[C@]2(CC(c3cccc(Cl)c3)=NO2)CN1C(=O)Oc1ccc([N+](=O)[O-])cc1)C(=O)C(=O)NC1CC1` [Compound 262], < 6.30.
Consider `CCC[C@H](NC(=O)[C@@H]1C[C@]2(CC(c3ccc(F)c(Cl)c3)=NO2)CN1C(=O)[C@@H](NC(=O)CC1CCOCC1)C(C)(C)C)C(=O)C(=O)NC1CC1` [Compound 270], for which the pKi is 6.30 to 7.00.
In the case of `CCC[C@H](NC(=O)[C@@H]1C[C@]2(CC(c3cccc(Cl)c3)=NO2)CN1C(=O)[C@@H](NC(=O)CC1CCCCC1)C(C)(C)C)C(=O)C(N)=O` [Compound 273], the pKi is 6.30 to 7.00.
In the case of `CCC[C@H](NC(=O)[C@@H]1C[C@]2(CC(c3cccc(Cl)c3)=NO2)CN1C(=O)CN1C[C@H]2CCCC[C@H]2C[C@H]1C(=O)NC(C)(C)C)C(=O)C(=O)NC1CC1` [Compound 276], the pKi is < 6.30.
Under `CCC[C@H](NC(=O)[C@@H]1C[C@]2(CC(c3ccccc3Oc3ccc(OC)cc3)=NO2)CN1C(=O)[C@@H](NC(=O)OCc1ccccc1)C(C)(C)C)C(=O)C(=O)NC1CC1` [Compound 278] stands < 6.30.
As to `CCC[C@H](NC(=O)[C@@H]1C[C@]2(CC(c3ccc(OC)c(Cl)c3)=NO2)CN1C(=O)[C@@H](NC(=O)CC1CCOCC1)C(C)(C)C)C(=O)C(=O)NC1CC1` [Compound 279], the negative-log Ki (pKi) was 6.30 to 7.00.
As for `CCC[C@H](NC(=O)[C@@H]1C[C@]2(CC(c3ccccc3)=NO2)CN1C(=O)[C@@H](NC(=O)[C@@H](NC(=O)c1cnccn1)C1CCCCC1)C(C)(C)C)C(=O)C(=O)NC1CC1` [Compound 281], the negative logarithm of the Ki (pKi) was > 7.00.
Under `CCC[C@H](NC(=O)[C@@H]1C[C@]2(CC(c3ccccc3)=NO2)CN1C(=O)[C@@H](NC(=O)Cc1cccnc1)C(C)(C)C)C(=O)C(=O)NC1CC1` [Compound 283] stands < 6.30.
In the case of `CCC[C@H](NC(=O)[C@@H]1C[C@]2(CC(c3cc(Cl)cc(Cl)c3)=NO2)CN1C(=O)[C@@H](NC(=O)CC1CCOCC1)C(C)(C)C)C(=O)C(=O)NC1CC1` [Compound 285] it was 6.30 to 7.00; in that of `CCC[C@H](NC(=O)[C@@H]1C[C@]2(CC(c3cccc(Cl)c3)=NO2)CN1C(=O)[C@@H](NC(=O)Cc1cccc(OC)c1)C(C)(C)C)C(=O)C(=O)NC1CC1` [Compound 287], 6.30 to 7.00; in that of `CCC[C@H](NC(=O)[C@@H]1C[C@]2(CC(c3ccccc3)=NO2)CN1C(=O)[C@@H](NC(=O)Nc1cccc2ccccc12)C(C)(C)C)C(=O)C(=O)NC1CC1` [Compound 288], 6.30 to 7.00.
Take `CCC[C@H](NC(=O)[C@@H]1C[C@]2(CC(c3cccc(Cl)c3)=NO2)CN1C(=O)[C@@H](NC(=O)N1CCC2(CC1)CC(=O)c1ccccc12)C(C)(C)C)C(=O)C(=O)NC1CC1` [Compound 291]: the pKi is < 6.30.
Under `CCC[C@H](NC(=O)[C@@H]1C[C@]2(CC(c3cccc(Cl)c3)=NO2)CN1C(=O)[C@@H](NC(=O)CC1CCCCC1)C(C)(C)C)C(=O)C(=O)NC1CC1` [Compound 294] stands 6.30 to 7.00; under `CCC[C@H](NC(=O)[C@@H]1C[C@]2(CC(c3ccc(Cl)cc3)=NO2)CN1C(=O)[C@@H](NC(=O)CC1CCOCC1)C(C)(C)C)C(=O)C(=O)NC1CC1` [Compound 299], < 6.30.
In the case of `CCC[C@H](NC(=O)[C@@H]1C[C@]2(CC(c3ccc(F)c(Cl)c3)=NO2)CN1C(=O)[C@@H](NC(=O)O[C@H]1CCOC1)C(C)(C)C)C(=O)C(=O)NC1CC1` [Compound 301] it was 6.30 to 7.00; in that of `CCC[C@H](NC(=O)[C@@H]1C[C@]2(CC(c3cccnc3)=NO2)CN1C(=O)[C@@H](NC(=O)CC1CCCCC1)C(C)(C)C)C(=O)C(=O)NC1CC1` [Compound 303], < 6.30.
As for `CCC[C@H](NC(=O)[C@@H]1C[C@]2(CC(c3cccc(Cl)c3)=NO2)CN1C(=O)[C@@H](NC(=O)OCC1CCCCO1)C(C)(C)C)C(=O)C(=O)NC1CC1` (stereo partly drawn) [Compound 308], the pKi is 6.30 to 7.00.
Under `CCC[C@H](NC(=O)[C@@H]1C[C@]2(CC(c3cccc(Cl)c3)=NO2)CN1C(=O)[C@@H](NC(=O)C1CCCCC1C(=O)N1CCCC1)C(C)(C)C)C(=O)C(=O)NC1CC1` (stereo partly drawn) [Compound 311] stands < 6.30; under `CCC[C@H](NC(=O)[C@@H]1C[C@]2(CC(c3cc(Cl)c(OC)cc3OC)=NO2)CN1C(=O)NCc1ccccc1)C(=O)C(=O)NC1CC1` [Compound 313], < 6.30.
In the case of `CCC[C@H](NC(=O)[C@@H]1C[C@]2(CC(c3cccc(Cl)c3)=NO2)CN1C(=O)[C@@H](NC(=O)C(C)N1Cc2ccccc2C1=O)C(C)(C)C)C(=O)C(=O)NC1CC1` (stereo partly drawn) [Compound 317] it was < 6.30; in that of `CCC[C@H](NC(=O)[C@@H]1C[C@]2(CC(c3cccc(Cl)c3)=NO2)CN1C(=O)[C@@H](NC(=O)CC(C)(C)C)C(C)(C)C)C(=O)C(=O)NC1CC1` [Compound 319], 6.30 to 7.00; in that of `CCC[C@H](NC(=O)[C@@H]1C[C@]2(CC(c3ccc(Cl)c(Cl)c3)=NO2)CN1C(=O)[C@@H](NC(=O)CC1CCCCC1)C(C)(C)C)C(=O)C(=O)NC1CC1` [Compound 323], 6.30 to 7.00.
For the molecule `CCC[C@H](NC(=O)[C@@H]1C[C@]2(CC(c3cccc(Cl)c3)=NO2)CN1C(=O)[C@@H](NC(=O)c1cccc([C@@H](C)C#N)c1)C(C)(C)C)C(=O)C(=O)NC1CC1` [Compound 324], the pKi was < 6.30.
Take `CCC[C@H](NC(=O)[C@@H]1C[C@]2(CC(c3cc(C(F)(F)F)cc(C(F)(F)F)c3)=NO2)CN1C(=O)[C@@H](NC(=O)O[C@H]1CCOC1)C(C)(C)C)C(=O)C(=O)NC1CC1` [Compound 330]: the negative-log Ki (pKi) is 6.30 to 7.00.
In the case of `CCC[C@H](NC(=O)[C@@H]1C[C@]2(CC(c3ccc(F)cc3)=NO2)CN1C(=O)[C@@H](NC(C)=O)C(C)(C)C)C(=O)C(=O)NC1CC1` [Compound 331] it was < 6.30.
On to `CCC[C@H](NC(=O)[C@@H]1C[C@]2(CC(c3cccc(Cl)c3)=NO2)CN1C(=O)[C@@H](NC(=O)N[C@@H](C)c1ccccc1)C(C)(C)C)C(=O)C(=O)NC1CC1` [Compound 333], for which the negative-log Ki (pKi) was 6.30 to 7.00.
Under `CCC[C@H](NC(=O)[C@@H]1C[C@]2(CC(c3cccc(Cl)c3)=NO2)CN1C(=O)[C@@H](NC(=O)[C@@H](C)Cc1ccccc1)C(C)(C)C)C(=O)C(=O)NC1CC1` [Compound 334] stands < 6.30; under `CCC[C@H](NC(=O)[C@@H]1C[C@]2(CC(c3ccc(OC)cc3OC)=NO2)CN1C(=O)[C@@H](NC(=O)OCc1ccccc1)C(C)(C)C)C(=O)C(=O)NC1CC1` [Compound 335], < 6.30.
